Experimental data published in patent US7271160B2, “Methods and compositions for degradation and/or inhibition of HER-family tyrosine kinases” (Sloan-Kettering Institute for Cancer Research, priority 1999, dated 2007).
pIC50: −log10 of the molar value. Entries after “also recorded” stand apart in the source; their conditions may differ.

How the values were obtained:
[1] = system: HER2; assay: Induction of HER2 degradation in MCF-7 cells (immunoblotting); type: cell-based, human; details: for pIC50: 24-hr treatment, amount of drug needed to degrade 50% of the protein vs control, average of three experiments, read-out: IC50 (HER-2); for specificity/selectivity for HER-2 over Raf-1: compared to GM
Protocol: (§1) After exposure, cells were washed twice with ice-cold phosphate-buffered saline (PBS), collected by scraping and transferred into microcentrifuge tubes. For immunoblotting (HER2, Raf-1, ER), cells were lysed with SDS lysis buffer (50 mM Tris-HCl, pH 7.5, 2% SDS, 10% glycerol, and 1 mM DTT), boiled for 10 min, and sonicated briefly; for immanoprecipitation (IGF-IR), cells were lysed with NP40 lysis buffer (50 mM Tris-HCl, pH 7.5, 1% Nonidet P-40, 150 mM NaCl, 1 mM Na3VO4, 40 mM NaF, 1 mM phenylmethylsulfonyl fluoride (PMSF) and 10 μg/ml each of aprotinin, leupeptin and soybean trypsin inhibitor) for 20 min at 4° C. Cell lysates were cleared by centrifuging at 14,000×g for 15 min at 4° C. in a microcentrifuge; the supernatants were collected as the experimental samples. Protein concentration in each sample was determined using the BCA kit (Pierce) according to the manufacture's instructions. For detecting IGF-IR, samples were immunoprecipitated with anti-IGF-IR antibody. Immunocomplexes were collected on protein A-Sepharose beads (Pharmacia), washed three tires with the lysis buffer. Samples were subjected to SDS-PAGE, electrotransferred to nitrocellulose membranes, detected using the ECL kit (Amersham) according to the manufacturer's protocol, and quantitated using the Gel Doc 1000 (Bio-Rad).
(§2) Numerical results for IC50 for HER-2, Raf-1 and cell growth are summarized in Table 1, with each number representing the average of three different experiments.

[2] = system: Raf-1; assay: Induction of Raf-1 degradation in MCF-7 cells (immunoblotting); type: cell-based, human; details: for pIC50: 24-hr treatment, amount of drug needed to degrade 50% of the protein vs control, average of three experiments
Protocol: as §1, §2

[3] = system: MCF-7 cells; assay: MCF-7 cell growth inhibition (cell counting); type: cell-based; details: Homo sapiens, MCF7, 96 h; MCF-7 cells treated for four days; 50% growth inhibition vs vehicle; average of three experiments; read-out: IC50 (growth inh.)
Protocol: (§3) The human breast cancer cell lines MCF-7 and SKBR-3 were obtained from ATCC (Rockville, Md.), and maintained in DME/F12 (1:1) supplemented with 10% heat-inactivated fetal bovine serum (Gemini Bioproducts), 2 mM glutamine, and 50 units/ml each of penicillin and streptomycin, in a humidified 5% CO2/air atmosphere at 37° C.
For cell growth experiments, cells were plated in 6-well tissue-culture plates (Corning) at 20,000 cells/well. Two days after plating, cells were treated with different concentrations of drugs or the vehicle DMSO (0.1%). MCF-7 cells were treated for four days; medium with the appropriate drug or vehicle was changed every 2 days; cells were trypsinized, collected and counted on a Coulter counter; IC50 for cell growth is designated as the amount of each drug needed to inhibit MCF-7 growth by 50% compared to the control vehicle.

[4] = system: estrogen receptor; assay: Estrogen receptor level in MCF-7 cells (immunoblotting time course); type: cell-based, human; details: 1 μM, 3 to 24 hours
[5] = system: IGF-I receptor; assay: IGF-I receptor level in MCF-7 cells (immunoprecipitation/immunoblotting time course); type: cell-based, human; details: 1 μM, 3 to 24 hours
Protocol: as §1, with “For immunoblotting (HER2, Raf-1, ER), cells were lysed with SDS lysis buffer (50 mM Tris-HCl, pH 7.5, 2% SDS, 10% glycerol, and 1 mM DTT), boiled for 10 min, and sonicated briefly; for immanoprecipitation (IGF-IR), cells were lysed with NP40 lysis buffer (50 mM Tris-HCl, pH 7.5, 1% Nonidet P-40, 150 mM NaCl, 1 mM Na3VO4, 40 mM NaF, 1 mM phenylmethylsulfonyl fluoride (PMSF) and 10 μg/ml each of aprotinin, leupeptin and soybean trypsin inhibitor) for 20 min at 4° C.” left out

[6] = system: SKBR3; assay: SKBR3 breast cancer cell sensitivity; type: cell-based, human; details: SKBR3, HER2 highly overexpressed
Protocol: as §3

[7] = system: 32D cells; assay: 32D cell growth (HER-kinase negative cells, daily cell counts); type: cell-based, murine; details: 32D cells lacking HER-kinases; various concentrations, counted daily for three days
Protocol: Murine hematopoietic cell line 32D, which lacks HER-kinases, was kindly provided by Dr Yosef Yarden (The Weizmann Institute of Science, Israel), and maintained in RPMI-1640 supplemented with 10% heat-inactivated FBS, 2 nm interleukin 3 (R&D systems), 2 mM glutamine, and 50 units/ml each of penicillin and streptomycin.

[8] = system: HER-2 and Raf-1; assay: Varying concentration and treatment pattern, HER-2 and Raf-1 levels (Example 3); type: cell-based
[9] = system: HER2; assay: Immunofluorescence of HER2 in MCF-7 cells; type: cell-based, human; details: vs DMSO control
Protocol: (§4) MCF-7 cells were grown and treated on fibronectin-coated coverslips placed in multiwell plates. Cells were fixed for 20 min at −20° C. in 100% methanol, rehydrated in PBS for 10 min at room temperature and blocked for 30 min at 37° C. in a blocking solution consisting of 2% bovine serum albumin (BSA), 10% normal goat serum and 0.05% Tween-20 in PBS. HER2 and Raf-1 were immunodetected with antibodies from Santa Cruz (SC284 and SC133, respectively); IGF-IR, an antibody from Calbiochem Oncogene Science (Abl). Slides were incubated with a […] of the primary antibody in blocking buffer for 1 hr at room temperature, followed by an incubation with Alexa 546-coupled goat anti-rabbit lgG secondary antibody (A-11010, Molecular Probes) at a […] in blocking buffer, or fluoresceine isothiocyanate-coupled goat anti-mouse IgG (F276, Molecular Probes) at a […]. […] DNA was stained with bisbenzimide, which was included in the secondary antibody solution (3 μg/ml final concentration. Coverslips were mounted on glass slides using Vectashield (Vector), to prevent quenching of fluorescence. Immunofluorescence was detected with a Zeiss epifluorescence microscope, at 40× and 100×, using appropriate filters for detection of rhodamine and bisbenzimide, and via confocal microscopy.

[10] = system: Raf-1; assay: Immunofluorescence of Raf-1 in MCF-7 cells; type: cell-based, human; details: vs DMSO control
Protocol: as §4

[11] = system: IGF-IR; assay: Immunofluorescence of IGF-IR in MCF-7 cells; type: cell-based, human; details: vs DMSO control
Protocol: as §4

Row | SMILES | pIC50 [1] | pIC50 [2] | pIC50 [3] | activity against HER2 (in words) [1] | specificity/selectivity for HER-2 over Raf-1 [1] | activity against Raf-1 (in words) [2] | further results
1 | COC1C=CC=C(C)C(=O)NC2=CC(=O)C(NCCCCCCCCCNC3=C4CC(C)CC(OC)C(O)C(C)C=C(C)C(OC(N)=O)C(OC)C=CC=C(C)C(=O)NC(=CC3=O)C4=O)=C(CC(C)CC(OC)C(O)C(C)C=C(C)C1OC(N)=O)C2=O (stereo not drawn) | 6.30 | 5.42 | 6.15 | – | – | – | –
2 | COC1C=CC=C(C)C(=O)NC2=CC(=O)C(NCCCCN)=C(CC(C)CC(OC)C(O)C(C)C=C(C)C1OC(N)=O)C2=O (stereo not drawn) [ButylaminoGM] | 7.26 | – | – | modestly weaker than GM | not selective | modestly weaker than GM | –
3 | COC1C=CC=C(C)C(=O)NC2=CC(=O)C(NCCCCNC3=C4CC(C)CC(OC)C(O)C(C)C=C(C)C(OC(N)=O)C(OC)C=CC=C(C)C(=O)NC(=CC3=O)C4=O)=C(CC(C)CC(OC)C(O)C(C)C=C(C)C1OC(N)=O)C2=O (stereo not drawn) [GMD-4c] | 7.22 | 5.49 | 7.00 | – | greatest selectivity of the compounds tested | – | HER2 / HER-kinase expression over time ([1]; 1 μM, 3 to 24 hours, Western blot and immunohistochemical analysis): reduces HER2 expression with the same kinetics; Raf-1 expression over time ([2]; 1 μM, 3 to 24 hours): does not affect; Estrogen receptor levels over time [4]: declined transiently but returned to baseline by 24 hours; IGF-I receptor expression over time [5]: does not affect; sensitivity of SKBR3 cells [6]: very sensitive; effect on growth of 32D cells [7]: does not appreciably affect its growth; also recorded: much less so; amount of HER-2 and Raf-1 as a function of the treatment pattern ([8]; 0.25, 0.5 and 1 μM, single or repeated treatments at 0, 3, 6, 12 hours): No significant differences; selectivity on repeated addition ([8]; high concentrations added four times in twelve hours): retained selectivity; anti-HER2 staining (immunofluorescence) [9]: significant reduction in fluorescence levels; anti-Raf-1 staining (immunofluorescence) [10]: only observed for the anti-HER2 antibodies; anti-IGF-IR staining (immunofluorescence) [11]: only observed for the anti-HER2 antibodies
4 | COC1C=CC=C(C)C(=O)NC2=CC(=O)C(NCCCCCCCNC3=C4CC(C)CC(OC)C(O)C(C)C=C(C)C(OC(N)=O)C(OC)C=CC=C(C)C(=O)NC(=CC3=O)C4=O)=C(CC(C)CC(OC)C(O)C(C)C=C(C)C1OC(N)=O)C2=O (stereo not drawn) [GMD-7c] | 7.15 | 6.30 | 6.22 | – | – | – | –
5 | CC(C)C(C)C [GMD-aa] | < 5.30 | < 5.30 | < 5.70 | inactive | – | inactive | –
6 | COC1C=CC=C(C)C(=O)NC2=CC(=O)C(NCCCCCCCCCCCCNC3=C4CC(C)CC(OC)C(O)C(C)C=C(C)C(OC(N)=O)C(OC)C=CC=C(C)C(=O)NC(=CC3=O)C4=O)=C(CC(C)CC(OC)C(O)C(C)C=C(C)C1OC(N)=O)C2=O (stereo not drawn) [twelve carbon-linked compound] | 6.12 | 5.46 | 6.15 | – | – | – | –
